Reference: patent US8247211B2, “Glycopeptide antibiotics” (American Cyanamid Company, priority 2001, dated 2012)
Numbered stars: 1 amine (or outer) side, 2 acyl side, 3 side chain; on linkers, the order of the positions; unused ones are H or OH. Square brackets hold non-standard residues; d marks the D form. Peptide text beside a SMILES is read from it. ξ: configuration not given here. X3 = CC1(C)OCC2OC(N3C(=N)NCC3C(O)C(N[*:1])C(=O)[*:2])C3OC(C)(C)OC3C2O1; ξEnduracididine(βξ-OH,4'ξ) = N=C1NCC(C(O)C(N)C(=O)O)N1; ξPhe(βξ-Me) = CC(c1ccccc1)C(N)C(=O)O

How the values were obtained:
Experiment in all cases: In vitro antibacterial evaluation: minimum inhibitory concentration (MIC), broth dilution method
Assay type in all cases: cell-based
[1] = test system: Streptococcus sp.; conditions: 18 hours at 35° C.
Method in brief: (§1)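 MIC by broth dilution in Mueller-Hinton II medium following NCCLS M7-A2. Inoculum was 5×10^5 CFU/mL and antibiotic was tested over 64-0.06 μg/mL. Gram-positive panel included clinical isolates resistant to methicillin, penicillin and/or vancomycin.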

[2] = test system: Escherichia coli; conditions: 18 hours at 35° C.
Method in brief: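 Inoculum: 5×10^5 CFU/mL. Range: 64-0.06 μg/mL. Medium: Muller-Hinton II […]; NCCLS M7-A2 broth dilution. Endpoint: lowest concentration inhibiting growth. Strains include methicillin-, penicillin- and/or vancomycin-resistant clinical isolates.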

[3] = test system: Staphylococcus sp.
Method in brief: as §1

[4] = test system: Enterococcus sp.; conditions: 18 hours at 35° C.
Method in brief: as §1

[5] = Streptococcus agalactiae (GC 4564)
[6] = Streptococcus pneumoniae (ATCC 6301)
[7] = Streptococcus pneumoniae (GC 1894)
[8] = Streptococcus pneumoniae (GC 4565)
[9] = Streptococcus pyogenes (GC 4563)
[10] = broth dilution, inoculum 5×10^5 CFU/mL
[11] = Enterococcus faecalis (ATCC 29212)
[12] = Enterococcus faecalis (GC 2242)
[13] = Enterococcus faecalis (GC 2691)
[14] = Enterococcus faecalis (GC 3059)
[15] = Enterococcus faecalis (GC 4552)
[16] = Enterococcus faecalis (GC 4553)
[17] = Enterococcus faecalis (GC 4554)
[18] = Enterococcus faecalis (GC 6189)

CC(c1ccccc1)C1NC(=O)CNC(=O)C(CO)NC(=O)C(C(O)C2CNC(=N)N2C2OC(CO)C(O)C(O)C2O)NC(=O)C(C(O)C2CNC(=N)N2)NC(=O)C(Cc2ccc(OC3OC(CO)C(OC4OC5COC6(CC7CCC6(C)C7(C)C)OC5C(O)C4O)C(O)C3O)cc2)NC1=O (stereo not drawn) [Example 214, Cyclo[glycyl-β-methylphenylalanyl-O-[4-O-[4,6-O-(1,7,7-trimethylbicyclo[2.2.1]hept-2-ylidene)hexopyranosyl]hexopyranosyl]tyrosyl-3-(2-iminoimidazolidin-4-yl)seryl-3-(3-hexopyranosyl-2-iminoimidazolidin-4-yl)serylseryl]]
32 µg/mL: MIC Staphylococcus aureus (GC 3051) ([3]; strain GC 3051)
<0.12 µg/mL: MIC Streptococcus agalactiae (GC 4564) [1, 5] | MIC Streptococcus pneumoniae (ATCC 6301) [1, 6] | MIC Streptococcus pneumoniae (GC 1894) [1, 7] | MIC Streptococcus pneumoniae (GC 4565) [1, 8] | MIC Streptococcus pyogenes (GC 4563) [1, 9] | MIC Streptococcus agalactiae (GC 4564) [1, 10] | MIC Streptococcus pneumoniae (ATCC 6301) [1, 10] | MIC Streptococcus pneumoniae (GC 1894) [1, 10] | MIC Streptococcus pneumoniae (GC 4565) [1, 10] | MIC Streptococcus pyogenes (GC 4563) [1, 10]
2 µg/mL: MIC Escherichia coli (GC 4560) [2] | MIC Staphylococcus aureus (ATCC 29213) ([3]; strain ATCC 29213) | MIC Staphylococcus aureus (GC 3053) ([3]; strain GC 3053) | MIC Staphylococcus aureus (GC 4541) ([3]; strain GC 4541) | MIC Staphylococcus aureus (GC 4545) ([3]; strain GC 4545) | MIC Enterococcus avium (GC 4558) ([4]; Enterococcus avium (GC 4558)) | MIC Enterococcus faecalis (ATCC 29212) [4, 11] | MIC Enterococcus faecalis (GC 2242) [4, 12] | MIC Enterococcus faecalis (GC 2691) [4, 13] | MIC Enterococcus faecalis (GC 3059) [4, 14] | MIC Enterococcus faecalis (GC 4552) [4, 15] | MIC Enterococcus faecalis (GC 4553) [4, 16] | MIC Enterococcus faecalis (GC 4554) [4, 17] | MIC Enterococcus faecalis (GC 6189) [4, 18] | MIC Enterococcus faecium (GC 4556) ([4]; Enterococcus faecium (GC 4556)) | MIC Enterococcus faecium (GC 4557) ([4]; Enterococcus faecium (GC 4557)) | MIC Enterococcus avium (GC 4558) [4, 10] | MIC Enterococcus faecalis (ATCC 29212) [4, 10] | MIC Enterococcus faecalis (GC 2242) [4, 10] | MIC Enterococcus faecalis (GC 2691) [4, 10] | MIC Enterococcus faecalis (GC 3059) [4, 10] | MIC Enterococcus faecalis (GC 4552) [4, 10] | MIC Enterococcus faecalis (GC 4553) [4, 10] | MIC Enterococcus faecalis (GC 4554) [4, 10] | MIC Enterococcus faecalis (GC 6189) [4, 10] | MIC Enterococcus faecium (GC 4556) [4, 10] | MIC Enterococcus faecium (GC 4557) [4, 10]
64 µg/mL: MIC Escherichia coli (ATCC 25922) [2] | MIC Escherichia coli (GC 4559) [2]
1 µg/mL: MIC Staphylococcus aureus (GC 1131) ([3]; strain GC 1131) | MIC Staphylococcus aureus (GC 4542) ([3]; strain GC 4542) | MIC Staphylococcus aureus (GC 4544) ([3]; strain GC 4544) | MIC Staphylococcus haemolyticus (GC 4546) ([3]; strain GC 4546) | MIC Coagulase Negative Staphylococcus (GC 4547) ([3]; strain GC 4547) | MIC Coagulase Negative Staphylococcus (GC 4548) ([3]; strain GC 4548) | MIC Coagulase Negative Staphylococcus (GC 4551) ([3]; strain GC 4551) | MIC Enterococcus faecium (GC 2243) ([4]; Enterococcus faecium (GC 2243)) | MIC Enterococcus faecium (GC 2243) [4, 10]
0.5 µg/mL: MIC Staphylococcus aureus-SMITH (GC 4543) ([3]; strain GC 4543) | MIC Coagulase Negative Staphylococcus (GC 4549) ([3]; strain GC 4549)

CC(c1ccccc1)C1NC(=O)CNC(=O)C(CO)NC(=O)C(C(O)C2CNC(=N)N2C2OC3COC(C)(C)OC3C3OC(C)(C)OC32)NC(=O)C(C(O)C2CNC(=N)N2)NC(=O)C(Cc2ccc(O)cc2)NC1=O (stereo not drawn) [Example 247, Cyclo[glycyl-β-methylphenylalanyltyrosyl-3-(2-iminoimidazolidin-4-yl)seryl-3-(2,3:4,6-diisopropylidenehexopyranosyl)-2-iminoimidazolidin-4-ylserylseryl]] (cyclo(G[ξPhe(βξ-Me)]Y[ξEnduracididine(βξ-OH,4'ξ)][X3]S); configuration not given here)
>64 µg/mL: MIC Streptococcus agalactiae (GC 4564) [1, 5] | MIC Streptococcus pneumoniae (ATCC 6301) [1, 6] | MIC Streptococcus pneumoniae (GC 1894) [1, 7] | MIC Streptococcus pneumoniae (GC 4565) [1, 8] | MIC Streptococcus pyogenes (GC 4563) [1, 9] | MIC Escherichia coli (ATCC 25922) [2] | MIC Escherichia coli (GC 4559) [2] | MIC Escherichia coli (GC 4560) [2] | MIC Coagulase Negative Staphylococcus (GC 4547) ([3]; Coagulase Negative Staphylococcus (GC 4547), 18 hours at 35° C.) | MIC Coagulase Negative Staphylococcus (GC 4548) ([3]; Coagulase Negative Staphylococcus (GC 4548), 18 hours at 35° C.) | MIC Coagulase Negative Staphylococcus (GC 4549) ([3]; Coagulase Negative Staphylococcus (GC 4549), 18 hours at 35° C.) | MIC Coagulase Negative Staphylococcus (GC 4551) ([3]; Coagulase Negative Staphylococcus (GC 4551), 18 hours at 35° C.) | MIC Coagulase Negative Staphylococcus (GC 6257) ([3]; Coagulase Negative Staphylococcus (GC 6257), 18 hours at 35° C.) | MIC Staphylococcus aureus (ATCC 29213) ([3]; Staphylococcus aureus (ATCC 29213), 18 hours at 35° C.) | MIC Staphylococcus aureus (GC 1131) ([3]; Staphylococcus aureus (GC 1131), 18 hours at 35° C.) | MIC Staphylococcus aureus (GC 3051) ([3]; Staphylococcus aureus (GC 3051), 18 hours at 35° C.) | MIC Staphylococcus aureus (GC 3053) ([3]; Staphylococcus aureus (GC 3053), 18 hours at 35° C.) | MIC Staphylococcus aureus (GC 4541) ([3]; Staphylococcus aureus (GC 4541), 18 hours at 35° C.) | MIC Staphylococcus aureus (GC 4542) ([3]; Staphylococcus aureus (GC 4542), 18 hours at 35° C.) | MIC Staphylococcus aureus (GC 4544) ([3]; Staphylococcus aureus (GC 4544), 18 hours at 35° C.) | MIC Staphylococcus aureus (GC 4545) ([3]; Staphylococcus aureus (GC 4545), 18 hours at 35° C.) | MIC Staphylococcus aureus-SMITH (GC 4543) ([3]; Staphylococcus aureus-SMITH (GC 4543), 18 hours at 35° C.) | MIC Staphylococcus haemolyticus (GC 4546) ([3]; Staphylococcus haemolyticus (GC 4546), 18 hours at 35° C.) | MIC Enterococcus avium (GC 4558) ([4]; Enterococcus avium (GC 4558)) | MIC Enterococcus faecalis (ATCC 29212) [4, 11] | MIC Enterococcus faecalis (GC 2242) [4, 12] | MIC Enterococcus faecalis (GC 2691) [4, 13] | MIC Enterococcus faecalis (GC 3059) [4, 14] | MIC Enterococcus faecalis (GC 4552) [4, 15] | MIC Enterococcus faecalis (GC 4553) [4, 16] | MIC Enterococcus faecalis (GC 4554) [4, 17] | MIC Enterococcus faecalis (GC 6189) [4, 18] | MIC Enterococcus faecium (GC 2243) ([4]; Enterococcus faecium (GC 2243)) | MIC Enterococcus faecium (GC 4556) ([4]; Enterococcus faecium (GC 4556)) | MIC Enterococcus faecium (GC 4557) ([4]; Enterococcus faecium (GC 4557))
